Laboratory results as given in patent publication US20030203899A1, “Drugs for incontinence” (priority 2000, published 2003).
Structures can show the parent of a compound that is named as a salt.

Test system: strips of urinary guinea-pig bladder contracted with carbacol
Assay: Inhibition of bladder contraction: relaxation of guinea-pig urinary bladder strips contracted with carbacol, in vitro
Assay type: cell-based
Conditions: strips contracted with carbacol 10^−6 M, placebo = 100
Text: The activity in the urinary incontinence of the compounds according to the present invention has been evaluated in an experimental model of inhibition of the bladder contraction.
The degree of the relaxation induced in the urinary bladder is a measure of the inhibitory action of the urinary incontinence of the drugs described in the present application.
Guinea-pigs of male sex having an average weight equal to 300-500 g were sacrificed and bled. The urinary bladder was removed and prepared for determining the myorelaxing activity in vitro, according to the method described by L. Nilvenbrant, Eur. J. Pharmacol. 327,195-207, 1997.
The obtained tissue strips were contracted with carbacol 10^−6 M in phisiological solution and the relaxation was determined in the presence of the compounds indicated in Table 1 at the concentrations mentioned therein. The 2-(acetyloxy) benzoic acid 6-(nitroxymethyl)-2-methylpyridyl ester hydrochloride was prepared according to Example 1 of patent application PCT/EP 00/01454 (NCX 4050).

| Compound | Bladder strip contraction, % of placebo (compound 3 × 10 − 5 M) [%] | Bladder strip contraction, % of placebo (compound 10^−6 M) [%] |
| --- | --- | --- |
| sildenafil nitrate salt | 31 |  |
| CCN(CC)CC#CCOC(=O)C(O)(c1ccccc1)C1CCCCC1 (centres unmarked) [Oxybutynin Hydrochloride (Comp), oxybutynin hydrochloride, reference compound] |  | 30 |
| CC(=O)Oc1ccccc1C(=O)Oc1ccc(CO[N+](=O)[O-])nc1C.Cl [NCX 4050, 2-(acetyloxy) benzoic acid 6-(nitroxymethyl)-2-methylpyridyl ester hydrochloride] | 71 |  |
| CCCc1nn(C)c2c(=O)[nH]c(-c3cc(S(=O)(=O)N4CCN(C)CC4)ccc3OCC)nc12 [Sildenafil Citrate, sildenafil citrate, reference compound] | 52 |  |
| oxybutynin nitrate salt |  | 0 |
